Experimental data published in EP0626016B1, “[…] […]” (BRITISH TECHNOLOGY GROUP LIMITED, priority 1992, dated 1993).
Read-outs that look alike come from different tables or passages of the source.

Target: T1, HRP Type VIA (Armoracia rusticana, UniProt P00433)
T1 sequence (P00433 31-338): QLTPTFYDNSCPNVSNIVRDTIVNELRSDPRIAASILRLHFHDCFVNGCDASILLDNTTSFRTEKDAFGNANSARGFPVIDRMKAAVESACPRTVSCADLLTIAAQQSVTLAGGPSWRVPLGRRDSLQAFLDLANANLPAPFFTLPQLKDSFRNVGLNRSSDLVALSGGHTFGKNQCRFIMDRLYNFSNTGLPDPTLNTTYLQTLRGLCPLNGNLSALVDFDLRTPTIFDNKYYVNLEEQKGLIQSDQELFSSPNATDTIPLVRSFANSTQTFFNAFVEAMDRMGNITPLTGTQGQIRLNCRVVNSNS
Conditions: for (d) Signal: Background: ratio (control = with no enhancer): control value in brackets not reported

With “methyl-(2-tolylboronic acid)sulfoxide [Compound 1051]” the “(a) Decrease in background (without HRP with test cpd.)” value (0.01 mg/ml, 10µl test compound) was “Y”, the “(b) Increase in signal (with HRP, with test cpd.)” value (shortened to “(b) Increase in signal”) (0.01 mg/ml, 10µl test compound) was “N” and the “(c) Increase in signal: background ratio” value (0.01 mg/ml, 10µl test compound) was “N (N = no)”. For the same compound, the “(a) Decrease in background (without HRP with test cpd.)” value (0.1 mg/ml, 10µl test compound) was “Y”, the “(b) Increase in signal” value (0.1 mg/ml, 10µl test compound) was “N” and the “(c) Increase in signal: background ratio” value (0.1 mg/ml, 10µl test compound) was “N (N = no)”. The “(a) Decrease in background (without HRP with test cpd.)” value (1 mg/ml, 10µl test compound) was “Y”, the “(b) Increase in signal” value (1 mg/ml, 10µl test compound) was “N” and the “(c) Increase in signal: background ratio” value (1 mg/ml, 10µl test compound) was “N (N = no)”.
In the case of bis(catechol)borate [Compound 1013], the “(a) Decrease in background (without HRP with test cpd.)” value is reported as “Y” and the “(b) Increase in signal” value is reported as “N”.
For `OB(O)c1cccc2c1Sc1ccccc1S2` [Compound 1007, 1-thianthreneboronic acid], the “(a) Decrease in background (without HRP with test cpd.)” value (0.01 mg/ml, 10µl test compound) was “Y”, the “(b) Increase in signal” value (0.01 mg/ml, 10µl test compound) was “N” and the “(c) Increase in signal: background ratio” value (0.01 mg/ml, 10µl test compound) was “N (N = no)”. For the same compound, the “(d) Signal: Background: ratio (control = with no enhancer)” value (0.01 mg/ml, 10µl test compound) was 2.1, the “(a) Decrease in background (without HRP with test cpd.)” value (0.1 mg/ml, 10µl test compound) was “Y” and the “(b) Increase in signal” value (0.1 mg/ml, 10µl test compound) was “N”. The “(c) Increase in signal: background ratio” value (0.1 mg/ml, 10µl test compound) was “N (N = no)”, the “(d) Signal: Background: ratio (control = with no enhancer)” value (0.1 mg/ml, 10µl test compound) was 2.5 and the “(a) Decrease in background (without HRP with test cpd.)” value (1 mg/ml, 10µl test compound) was “Y”. The “(b) Increase in signal” value (1 mg/ml, 10µl test compound) was “N”, the “(c) Increase in signal: background ratio” value (1 mg/ml, 10µl test compound) was “N (N = no)” and the “(d) Signal: Background: ratio (control = with no enhancer)” value (1 mg/ml, 10µl test compound) was 1.8 (2.1).
In the case of `OB(O)c1ccccc1Cl` [Compound 1027, 2-chlorophenylboronic acid], the “(a) Decrease in background (without HRP with test cpd.)” value (0.01 mg/ml, 10µl test compound) is reported as “Y”, the “(b) Increase in signal” value (0.01 mg/ml, 10µl test compound) is reported as “N” and the “(c) Increase in signal: background ratio” value (0.01 mg/ml, 10µl test compound) is reported as “N (N = no)”. For the same compound, the “(d) Signal: Background: ratio (control = with no enhancer)” value (0.01 mg/ml, 10µl test compound) was 2.1 (2.0), the “(a) Decrease in background (without HRP with test cpd.)” value (0.1 mg/ml, 10µl test compound) was “Y” and the “(b) Increase in signal” value (0.1 mg/ml, 10µl test compound) was “N”. The “(c) Increase in signal: background ratio” value (0.1 mg/ml, 10µl test compound) was “N (N = no)”, the “(d) Signal: Background: ratio (control = with no enhancer)” value (0.1 mg/ml, 10µl test compound) was 3.2 (2.9) and the “(a) Decrease in background (without HRP with test cpd.)” value (1 mg/ml, 10µl test compound) was “Y”. For the same compound, the “(b) Increase in signal” value (1 mg/ml, 10µl test compound) was “N” and the “(c) Increase in signal: background ratio” value (1 mg/ml, 10µl test compound) was “N (N = no)”.
In the case of `BrCc1ccccc1OB(Oc1ccccc1CBr)c1ccccc1CBr` [Compound 1049, 2-boromethylphenyl-di-(2'-boromethylphenoxy)borane], the “(a) Decrease in background (without HRP with test cpd.)” value (0.01 mg/ml, 10µl test compound) is reported as “Y”, the “(b) Increase in signal” value (0.01 mg/ml, 10µl test compound) is reported as “N” and the “(c) Increase in signal: background ratio” value (0.01 mg/ml, 10µl test compound) is reported as “N (N = no)”. For the same compound, the “(a) Decrease in background (without HRP with test cpd.)” value (0.1 mg/ml, 10µl test compound) was “Y”, the “(b) Increase in signal” value (0.1 mg/ml, 10µl test compound) was “N” and the “(c) Increase in signal: background ratio” value (0.1 mg/ml, 10µl test compound) was “N (N = no)”. The “(d) Signal: Background: ratio (control = with no enhancer)” value (0.1 mg/ml, 10µl test compound) was 3.2 (2.9), the “(a) Decrease in background (without HRP with test cpd.)” value (1 mg/ml, 10µl test compound) was “Y” and the “(b) Increase in signal” value (1 mg/ml, 10µl test compound) was “N”. The “(c) Increase in signal: background ratio” value (1 mg/ml, 10µl test compound) was “N (N = no)”.
`CCCCOB(OCCCC)c1ccc(Br)cc1` [Compound 1044, 4-bromophenyl-di-n-butoxyborane] was tested, and the “(a) Decrease in background (without HRP with test cpd.)” value (0.01 mg/ml, 10µl test compound) was “Y”, the “(b) Increase in signal” value (0.01 mg/ml, 10µl test compound) was “Y” and the “(c) Increase in signal: background ratio” value (0.01 mg/ml, 10µl test compound) was “Y (Column (c) shows whether there was an increase in the signal:background ratio by over 25% of the control value (Y = yes)”. For the same compound, the “(d) Signal: Background: ratio (control = with no enhancer)” value (0.01 mg/ml, 10µl test compound) was 38.5 (1.9), the “(a) Decrease in background (without HRP with test cpd.)” value (0.1 mg/ml, 10µl test compound) was “Y” and the “(b) Increase in signal” value (0.1 mg/ml, 10µl test compound) was “Y”. For the same compound, the “(c) Increase in signal: background ratio” value (0.1 mg/ml, 10µl test compound) was “Y (Column (c) shows whether there was an increase in the signal:background ratio by over 25% of the control value (Y = yes)”, the “(d) Signal: Background: ratio (control = with no enhancer)” value (0.1 mg/ml, 10µl test compound) was 623.1 (2.7) and the “(a) Decrease in background (without HRP with test cpd.)” value (1 mg/ml, 10µl test compound) was “Y”. For the same compound, the “(b) Increase in signal” value (1 mg/ml, 10µl test compound) was “N”, the “(c) Increase in signal: background ratio” value (1 mg/ml, 10µl test compound) was “Y (Column (c) shows whether there was an increase in the signal:background ratio by over 25% of the control value (Y = yes)” and the “(d) Signal: Background: ratio (control = with no enhancer)” value (1 mg/ml, 10µl test compound) was 147.1 (4.5).
